In patent US9540299B2, “MTOR-independent activator of TFEB for autophagy enhancement and uses thereof” (Hong Kong Baptist University, priority 2015, dated 2017):

What was measured:
[1] = system: N2a cells; test: Lysosomal markers LAMP1 and CTSD by western blot in N2a cells; type: cell-based, mouse; details: 12 hours
Procedure: N2a cells are treated with different concentrations (0-1 μM) of E4 for 12 hours. Torin 1 (1 μM) is used as a positive control. The expression of LAMP1, pro-CTSD and mature CTSD (M-CTSD) are determined by western blotting (FIG. 25A) and quantified (FIG. 25B). Quantification data are presented as the mean±SD from three independent experiments. *p<0.05, **p<0.01 vs. the control (0.1% DMSO).
After transiently knockdown the expression of TFEB, N2a cells are treated with E4 (1 μM) for 12 hours, the expression of LAMP1, Pro-CTSD and mature CTSD (M-CTSD) are detected by Western blotting (FIG. 29A). Quantification data are presented as the mean±SD from three independent experiments FIG. 29B. **p<0.01 vs. the control (0.1% DMSO).
N2a and HeLa cells are cultured in DMEM supplemented with 10% FBS. HeLa cells stably expressing 3×-Flag-TFEB are maintained in DMEM supplemented with 10% FBS and 500 μg/mL G418. For drug treatment, the full medium is replaced by fresh Opti-MEM I containing the compounds (in 0.1% DMSO) and incubated for the indicated time periods.
N2a cells are transfected with mouse Tfeb siRNA and the non-target siRNA using Lipofectamine RNAiMAX (13778030, Invitrogen) and incubated at 37° C. for 72 hours.
Cells are lysed on ice in 1× Lysis Buffer (9803, Life Technologies) with complete protease inhibitor mixture (04693124001, Roche Applied Science) and phosphatase inhibitor (B15001, Biotool). Cytosolic and nuclear fractions are isolated using protocols similar to those described previously. Proteins are separated by 10-15% SDS-PAGE, transferred, and blotted with the antibodies described. The blots are then incubated with primary and secondary antibodies. The protein signals are detected by the ECL kit (32106, Pierce) and quantified using ImageJ software.

[2] = system: SH-SY5Y cells; test: Real-time PCR of autophagy and lysosome genes in SH-SY5Y cells; type: cell-based, human; details: 1 μM, 12 h
Procedure: Various gene expressions in Hela cells (FIG. 7A) and SH-SY5Y cells (FIG. 7B) after treated with C1 (1 μM) for 12 h. mRNA transcript abundance is assessed by real-time PCR using specific primers for the indicated genes. Relative quantification (RQ) is presented as means±SD of three independent experiments. FIG. 7C is western blot showing the protein levels of autophagy marker (LC3-II), TFEB and lysosome markers (LAMP1, CTSD) in Hela and SH-SY5Y cells having treated with C1 (0.5, 1 μM) or sucrose (100 mM) for 12 h. The relative intensity of autophagy marker (LC3-II), TFEB and lysosome markers (LAMP1, CTSD) normalized to that of ACTB/β-actin in Hela cells (FIG. 7D) and SH-SY5Y cells (FIG. 7E). Data are presented as the mean±SD from three independent experiments. *p<0.05 vs. the control (0.1% DMSO). […] Autophagy-enhancing effect of C1 is TFEB-dependent. Data are presented as the mean±SD from three independent experiments. *p<0.05 vs. the control. N. S.=not significant.
Total RNA is extracted from cells and tissues using RNeasy Plus Mini Kit (74134, Qiagen). Reverse transcription is performed using High-Capacity cDNA Reverse Transcription Kit (4368814, Life Technologies). […] Fold changes are calculated using the ΔΔCT method and the results were normalized against an internal control (GAPDH or ACTB).

[3] = system: TFEB and autophagy in rats brains; test: Short-term oral administration in SD rats: TFEB, autophagy and MTOR markers in liver and brain; type: in vivo
Procedure: SD rats (n=6 per group) are orally administered by gavage with C1 (10 mg/kg and 25 mg/kg per day) or vehicle (1% CMC-Na) for 24 h. An additional dosage of C1 was given for 6 h before the rats were killed. […] FIG. 9B-9D are bar charts showing quantitative data of various protein expressions in the liver, frontal cortex and striatum. Data are presented as the mean±SD (n=6). *p<0.05 vs. the vehicle treatment. […] Relative quantification (RQ) is presented as means±SD (n=4). *p<0.05 vs. the vehicle treatment.
SD rats (n=6 per group) are orally administered by gavage with C1 (10 mg/kg and 25 mg/kg per day) or vehicle (1% CMC-Na) for 24 h. An additional dosage of C1 is given for 6 h before the rats are killed. […] Data are presented as the mean±SD (n=6). FIG. 10B is western blot (left) and quantitative data (right) showing TFEB nuclear translocation after C1 treatment (n=4).
All animal care and procedures are approved by the Hong Kong Baptist University Committee on the Use of Human and Animal Subjects in Teaching and Research. Adult male Sprague-Dawley (SD) rats weighted 350-400 g are maintained on ad libitum food and water with a 12-hour light/dark cycle in a controlled environment. For short-term treatment, rats (n=6 per group) are orally administered by gavage with C1 (10 mg/kg and 25 mg/kg per day) or vehicle (1% sodium carbonyl methylcellulose (CMC-Na)) for 24 h. For chronic treatment, C1 (10 mg/kg per day) is given by gavage to rats for 21 days. At the end of each treatment, an additional dosage of C1 is given for 6 h before the rats are killed. Livers and major brain regions dissected are snap-frozen in liquid nitrogen.
Total RNA is extracted from cells and tissues using RNeasy Plus Mini Kit (74134, Qiagen). Reverse transcription is performed using High-Capacity cDNA Reverse Transcription Kit (4368814, Life Technologies). Autophagy and lysosome gene primers are synthesized by Life Technologies and the oligonucleotide sequences are listed in Table 1. Real-time PCR is carried out with the Fast SYBRR Green Master Mix (4385612, Life Technologies) using the ViiA™ 7 Real-Time PCR System (Life Technologies). Fold changes are calculated using the ΔΔCT method and the results were normalized against an internal control (GAPDH or ACTB).
Cells are lysed on ice in 1× Lysis Buffer (9803, Life Technologies) with complete protease inhibitor mixture (04693124001, Roche Applied Science). Animal tissues are homogenized in nine volumes of ice-cold PBS supplemented with protease inhibitors. Cytosolic and nuclear fractions are isolated using protocols similar to those described previously. Anti-Flag or TFEB antibody is added to the whole cell lysates and Dynabeads® Protein G (10003D, Life Technologies) is used for immunoprecipitation. Proteins are separated by 10-15% SDS-PAGE, transferred, and blotted with the antibodies described. The blots are then incubated with secondary antibodies or the Clean-Blot IP Detection Reagent (21230, Thermo Scientific) at room temperature for 1 h. The protein signals are detected by ECL kit (32106, Pierce) and quantified using ImageJ software.

[4] = short-term oral 10 and 25 mg/kg

| Compound | levels of Pro-CTSD and mature CTSD (M-CTSD) ([1]; 0-1 μM, dose-dependent manner) | levels of the lysosomal marker LAMP1 ([1]; 0-1 μM, dose-dependent manner) | LAMP1, pro-CTSD and CTSD levels in control (non-target siRNA) cells ([1]; 1 μM) | mRNA of TFEB and genes involved in autophagy and lysosome biogenesis [2] | interaction between endogenous TFEB and MTOR in the frontal cortex ([3]; oral 25 mg/kg) | phosphorylation of MTOR and RPS6KB1 in frontal cortex ([3]; oral 25 mg/kg) | expression of LC3-II and TFEB in the liver, frontal cortex and striatum ([3]; short-term oral 10 mg/kg and 25 mg/kg) | expression of LAMP1 in the brains [3, 4] | nuclear translocation of TFEB in the brains (western blot) [3, 4] | levels of endogenous SQSTM1/p62 or SNCA in the brains ([3]; short-term oral administration) | mRNA of TFEB and several autophagy/lysosomal genes in the brain (real-time PCR) ([3]; short-term oral, frontal cortex) |
| --- | --- | --- | --- | --- | --- | --- | --- | --- | --- | --- | --- |
| O=C(/C=C/c1ccccc1I)/C=C/c1ccccc1I [E4] | increases | significantly increases | significantly increases | – | – | – | – | – | – | – | – |
| COc1ccccc1/C=C/C(=O)/C=C/c1ccccc1OC [C1, 1,5-bis(2-methoxyphenyl)penta-1,4-dien-3-one] | – | – | – | up-regulated | significantly inhibited | significantly increases | dose-dependently increases | dose-dependently increases | dose-dependently promotes | does not affect | up-regulated |
